Experiment: xn = mol fraction of the nth substance listed
Conditions: Liquid, Vibrating tube method

CCCCCCCCCCC [undecane] + CCCCCCC
Conditions | mass density [kg/m3]
313.12 K, 2001 kPa, x2 = 0.5063 | 703.7
313.12 K, 3000 kPa, x2 = 0.5063 | 704.6
313.12 K, 4000 kPa, x2 = 0.5063 | 705.6
313.12 K, 5000 kPa, x2 = 0.5063 | 706.5
313.12 K, 6000 kPa, x2 = 0.5063 | 707.4
313.12 K, 7000 kPa, x2 = 0.5063 | 708.2
313.12 K, 8001 kPa, x2 = 0.5063 | 709.1
313.12 K, 9000 kPa, x2 = 0.5063 | 709.9
313.12 K, 10000 kPa, x2 = 0.5063 | 710.8
313.12 K, 11000 kPa, x2 = 0.5063 | 711.6
313.12 K, 12000 kPa, x2 = 0.5063 | 712.4
313.12 K, 13000 kPa, x2 = 0.5063 | 713.2
313.12 K, 14000 kPa, x2 = 0.5063 | 714
313.12 K, 15000 kPa, x2 = 0.5063 | 714.8
313.12 K, 16000 kPa, x2 = 0.5063 | 715.6
313.12 K, 17001 kPa, x2 = 0.5063 | 716.3
313.12 K, 18000 kPa, x2 = 0.5063 | 717.1
313.12 K, 19000 kPa, x2 = 0.5063 | 717.8
313.12 K, 20000 kPa, x2 = 0.5063 | 718.5
313.12 K, 21001 kPa, x2 = 0.5063 | 719.2
313.12 K, 22050 kPa, x2 = 0.5063 | 720
313.12 K, 23000 kPa, x2 = 0.5063 | 720.6
313.12 K, 24000 kPa, x2 = 0.5063 | 721.3
313.12 K, 25000 kPa, x2 = 0.5063 | 722
313.14 K, 1001 kPa, x2 = 0.9511 | 671.7
313.14 K, 2000 kPa, x2 = 0.9511 | 672.8
313.14 K, 3000 kPa, x2 = 0.9511 | 673.9
313.14 K, 4000 kPa, x2 = 0.9511 | 674.9
313.14 K, 5000 kPa, x2 = 0.9511 | 676
313.14 K, 6000 kPa, x2 = 0.9511 | 677
313.14 K, 7000 kPa, x2 = 0.9511 | 678
313.14 K, 8000 kPa, x2 = 0.9511 | 679
313.14 K, 9000 kPa, x2 = 0.9511 | 680
313.14 K, 10000 kPa, x2 = 0.9511 | 680.9
313.14 K, 11000 kPa, x2 = 0.9511 | 681.8
313.14 K, 12000 kPa, x2 = 0.9511 | 682.7
313.14 K, 13000 kPa, x2 = 0.9511 | 683.6
313.14 K, 14001 kPa, x2 = 0.9511 | 684.5
313.14 K, 15001 kPa, x2 = 0.9511 | 685.4
313.14 K, 16000 kPa, x2 = 0.9511 | 686.3
313.14 K, 17001 kPa, x2 = 0.9511 | 687.1
313.14 K, 18001 kPa, x2 = 0.9511 | 687.9
313.14 K, 19000 kPa, x2 = 0.9511 | 688.7
313.14 K, 20000 kPa, x2 = 0.9511 | 689.5
313.14 K, 21001 kPa, x2 = 0.9511 | 690.3
313.14 K, 22000 kPa, x2 = 0.9511 | 691.1
313.14 K, 23001 kPa, x2 = 0.9511 | 691.9
313.14 K, 24000 kPa, x2 = 0.9511 | 692.6
313.14 K, 25000 kPa, x2 = 0.9511 | 693.3
313.15 K, 1000 kPa, x2 = 0.7482 | 687.4
313.15 K, 1001 kPa, x2 = 0.05 | 724.3
313.15 K, 2000 kPa, x2 = 0.7482 | 688.4
313.15 K, 2001 kPa, x2 = 0.05 | 725.1
313.15 K, 3000 kPa, x2 = 0.05 | 726
313.15 K, 3000 kPa, x2 = 0.7482 | 689.4
313.15 K, 4000 kPa, x2 = 0.05 | 726.8
313.15 K, 4000 kPa, x2 = 0.7482 | 690.4
313.15 K, 5000 kPa, x2 = 0.05 | 727.6
313.15 K, 5000 kPa, x2 = 0.7482 | 691.3
313.15 K, 6000 kPa, x2 = 0.05 | 728.4
313.15 K, 6000 kPa, x2 = 0.7482 | 692.3
313.15 K, 7000 kPa, x2 = 0.05 | 729.2
313.15 K, 7000 kPa, x2 = 0.7482 | 693.2
313.15 K, 8000 kPa, x2 = 0.7482 | 694.1
313.15 K, 8001 kPa, x2 = 0.05 | 730
313.15 K, 9000 kPa, x2 = 0.05 | 730.8
313.15 K, 9000 kPa, x2 = 0.7482 | 695
313.15 K, 10000 kPa, x2 = 0.05 | 731.6
313.15 K, 10000 kPa, x2 = 0.7482 | 695.9
313.15 K, 11000 kPa, x2 = 0.05 | 732.3
313.15 K, 11000 kPa, x2 = 0.7482 | 696.8
313.15 K, 12000 kPa, x2 = 0.05 | 733.1
313.15 K, 12000 kPa, x2 = 0.7482 | 697.6
313.15 K, 13000 kPa, x2 = 0.05 | 733.8
313.15 K, 13000 kPa, x2 = 0.7482 | 698.5
313.15 K, 14000 kPa, x2 = 0.05 | 734.5
313.15 K, 14000 kPa, x2 = 0.7482 | 699.3
313.15 K, 15000 kPa, x2 = 0.05 | 735.2
313.15 K, 15000 kPa, x2 = 0.7482 | 700.1
313.15 K, 16000 kPa, x2 = 0.05 | 735.9
313.15 K, 16000 kPa, x2 = 0.7482 | 700.9
313.15 K, 17000 kPa, x2 = 0.05 | 736.6
313.15 K, 17000 kPa, x2 = 0.7482 | 701.7
313.15 K, 18000 kPa, x2 = 0.05 | 737.3
313.15 K, 18000 kPa, x2 = 0.7482 | 702.5
313.15 K, 19000 kPa, x2 = 0.05 | 738
313.15 K, 19000 kPa, x2 = 0.7482 | 703.3
313.15 K, 20000 kPa, x2 = 0.05 | 738.7
313.15 K, 20000 kPa, x2 = 0.7482 | 704
313.15 K, 21000 kPa, x2 = 0.05 | 739.3
313.15 K, 21000 kPa, x2 = 0.7482 | 704.8
313.15 K, 22000 kPa, x2 = 0.7482 | 705.5
313.15 K, 22001 kPa, x2 = 0.05 | 740
